Among the data in ChEMBL document CHEMBL1147604, “Dipeptidyl aspartyl fluoromethylketones as potent caspase-3 inhibitors: SAR of the P2 amino acid” (Bioorg Med Chem Lett, 2004) are IC50 values, retold here.

One test deals with Coagulation factor X (Homo sapiens, UniProt P00742). Kind of test: Compound was evaluated for its inhibitory activity against the Coagulation factor X.
The target of the next test is T1, Caspase-7 (Homo sapiens, UniProt P55210).
T1 sequence (P55210 whole entry): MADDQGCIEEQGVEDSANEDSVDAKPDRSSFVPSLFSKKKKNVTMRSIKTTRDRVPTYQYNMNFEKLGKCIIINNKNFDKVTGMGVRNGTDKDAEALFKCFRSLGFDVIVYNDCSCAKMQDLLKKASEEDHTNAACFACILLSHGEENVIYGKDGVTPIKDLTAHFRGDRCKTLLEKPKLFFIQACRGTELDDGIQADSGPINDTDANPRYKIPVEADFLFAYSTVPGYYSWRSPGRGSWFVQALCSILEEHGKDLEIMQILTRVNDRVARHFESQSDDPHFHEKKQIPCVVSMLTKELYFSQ
In words: Compound was evaluated for its inhibitory activity against the Caspase-7 enzyme.

For the next test, the target named is T2, Caspase-9 (Homo sapiens, UniProt P55211).
T2 sequence (P55211 whole entry): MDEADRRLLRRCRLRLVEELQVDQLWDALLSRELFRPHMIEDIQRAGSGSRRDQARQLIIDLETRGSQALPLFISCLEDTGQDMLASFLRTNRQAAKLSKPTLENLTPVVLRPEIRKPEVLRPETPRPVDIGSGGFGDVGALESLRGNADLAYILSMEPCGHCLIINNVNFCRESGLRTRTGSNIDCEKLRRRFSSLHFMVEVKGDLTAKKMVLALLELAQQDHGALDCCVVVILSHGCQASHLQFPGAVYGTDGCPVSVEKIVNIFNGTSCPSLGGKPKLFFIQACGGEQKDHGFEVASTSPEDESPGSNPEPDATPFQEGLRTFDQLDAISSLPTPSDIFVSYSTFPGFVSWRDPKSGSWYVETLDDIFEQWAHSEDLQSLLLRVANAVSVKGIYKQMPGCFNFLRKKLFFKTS
In words: Compound was evaluated for its inhibitory activity against the Caspase-9 enzyme.

The next test addresses Caspase-8 (Homo sapiens, UniProt Q14790). Kind of test: Compound was evaluated for its inhibitory activity against the Caspase-8 enzyme.
Another test concerns the target T3, Caspase-6 (Homo sapiens, UniProt P55212).
T3 sequence (P55212 whole entry): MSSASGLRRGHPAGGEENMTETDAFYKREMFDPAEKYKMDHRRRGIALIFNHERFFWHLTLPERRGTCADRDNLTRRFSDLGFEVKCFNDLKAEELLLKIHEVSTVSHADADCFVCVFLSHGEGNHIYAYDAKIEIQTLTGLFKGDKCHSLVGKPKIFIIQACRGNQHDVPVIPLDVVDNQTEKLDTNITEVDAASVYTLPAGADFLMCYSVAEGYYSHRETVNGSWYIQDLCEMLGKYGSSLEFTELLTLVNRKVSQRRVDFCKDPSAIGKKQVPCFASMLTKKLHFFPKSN
In words: Compound was evaluated for its inhibitory activity against the Caspase-6 enzyme.

Another test has as its target Prothrombin (Homo sapiens, UniProt P00734). In words: Compound was evaluated for its inhibitory activity against the Thrombin.
Test [1] deals with T4, Calpain-1 catalytic subunit (Homo sapiens, UniProt P07384).
T4 sequence (P07384 whole entry): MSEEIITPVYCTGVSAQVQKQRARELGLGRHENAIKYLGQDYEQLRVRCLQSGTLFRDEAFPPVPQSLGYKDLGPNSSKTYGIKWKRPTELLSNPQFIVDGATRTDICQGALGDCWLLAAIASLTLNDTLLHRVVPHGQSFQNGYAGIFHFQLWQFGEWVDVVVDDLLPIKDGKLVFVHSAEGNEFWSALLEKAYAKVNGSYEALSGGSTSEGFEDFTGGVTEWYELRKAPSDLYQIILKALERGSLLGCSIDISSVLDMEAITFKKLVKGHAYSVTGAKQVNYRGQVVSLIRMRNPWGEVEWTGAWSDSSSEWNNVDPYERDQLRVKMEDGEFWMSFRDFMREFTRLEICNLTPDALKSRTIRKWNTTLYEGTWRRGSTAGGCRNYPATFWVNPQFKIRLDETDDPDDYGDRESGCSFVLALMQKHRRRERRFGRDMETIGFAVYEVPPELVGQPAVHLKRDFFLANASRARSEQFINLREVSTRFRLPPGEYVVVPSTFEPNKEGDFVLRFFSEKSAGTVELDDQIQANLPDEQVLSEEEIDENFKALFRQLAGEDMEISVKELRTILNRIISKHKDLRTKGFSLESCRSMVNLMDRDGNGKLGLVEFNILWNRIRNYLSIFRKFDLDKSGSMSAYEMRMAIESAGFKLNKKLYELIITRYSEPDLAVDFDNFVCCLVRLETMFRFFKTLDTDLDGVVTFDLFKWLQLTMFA
In words: Compound was evaluated for its inhibitory activity against the Calpain 1 enzyme.

The target of another test is Cathepsin B (Homo sapiens, UniProt P07858). In words: Compound was evaluated for its inhibitory activity against Cathepsin B.
The target in another test is T5, Caspase-3 (Homo sapiens, UniProt P42574).
T5 sequence (P42574 whole entry): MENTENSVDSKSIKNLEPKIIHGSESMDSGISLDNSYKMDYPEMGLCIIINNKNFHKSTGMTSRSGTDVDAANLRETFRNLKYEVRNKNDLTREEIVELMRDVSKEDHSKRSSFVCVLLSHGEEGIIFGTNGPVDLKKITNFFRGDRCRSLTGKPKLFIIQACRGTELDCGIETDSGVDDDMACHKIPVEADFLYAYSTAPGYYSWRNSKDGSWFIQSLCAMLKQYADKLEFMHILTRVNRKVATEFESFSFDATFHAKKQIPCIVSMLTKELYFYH
Kind of test: Inhibitory activity against human recombinant Caspase-3 enzyme.

In a further test the target is T6, Caspase-1 (Homo sapiens, UniProt P29466).
T6 sequence (P29466 whole entry): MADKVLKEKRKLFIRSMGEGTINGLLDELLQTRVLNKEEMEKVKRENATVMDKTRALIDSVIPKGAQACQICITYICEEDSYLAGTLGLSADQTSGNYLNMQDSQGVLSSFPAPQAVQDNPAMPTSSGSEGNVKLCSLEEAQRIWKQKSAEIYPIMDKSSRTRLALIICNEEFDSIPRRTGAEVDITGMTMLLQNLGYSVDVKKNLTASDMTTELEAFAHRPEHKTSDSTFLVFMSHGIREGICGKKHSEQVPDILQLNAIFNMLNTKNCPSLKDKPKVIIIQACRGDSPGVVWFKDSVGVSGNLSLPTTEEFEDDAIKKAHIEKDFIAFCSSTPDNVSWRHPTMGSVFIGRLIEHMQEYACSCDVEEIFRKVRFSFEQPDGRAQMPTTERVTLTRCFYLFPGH
In words: Compound was evaluated for its inhibitory activity against the Caspase-1 enzyme.

For test [2], the target named is T4, Calpain-1 catalytic subunit. In words: Compound was evaluated for its inhibitory activity against the Calpain-1 enzyme.

Some results are limits rather than exact numbers.

Sequence of Coagulation factor X (P00742 41-179 limits assumed): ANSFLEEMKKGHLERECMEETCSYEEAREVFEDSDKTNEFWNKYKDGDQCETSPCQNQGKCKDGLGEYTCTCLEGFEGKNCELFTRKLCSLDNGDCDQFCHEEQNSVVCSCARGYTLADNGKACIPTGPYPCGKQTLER
Sequence of Coagulation factor X (P00742 235-488 limits assumed): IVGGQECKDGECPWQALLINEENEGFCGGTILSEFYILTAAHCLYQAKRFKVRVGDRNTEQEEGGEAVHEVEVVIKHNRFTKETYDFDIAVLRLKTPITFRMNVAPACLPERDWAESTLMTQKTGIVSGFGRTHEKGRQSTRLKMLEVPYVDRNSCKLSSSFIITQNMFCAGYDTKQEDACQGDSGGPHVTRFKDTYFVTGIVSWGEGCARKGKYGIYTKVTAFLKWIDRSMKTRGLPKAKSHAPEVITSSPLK
Sequence of Caspase-8 (Q14790 217-374 limits assumed): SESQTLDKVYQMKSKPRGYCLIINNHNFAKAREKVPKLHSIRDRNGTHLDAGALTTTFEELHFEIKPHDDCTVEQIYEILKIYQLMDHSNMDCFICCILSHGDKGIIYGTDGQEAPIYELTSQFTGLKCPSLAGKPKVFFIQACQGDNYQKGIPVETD
Sequence of Caspase-8 (Q14790 385-479 limits assumed): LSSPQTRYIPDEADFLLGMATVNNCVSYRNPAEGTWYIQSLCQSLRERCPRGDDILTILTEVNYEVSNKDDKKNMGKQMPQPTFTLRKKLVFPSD

As a reminder, the IC50 is the concentration that inhibits the measured activity by half. In the case of `CC(C)[C@H](NC(=O)OCc1ccccc1)C(=O)NC(CC(=O)O)C(=O)CF` (stereo partly specified), the IC50 against Coagulation factor X is more than 100000 nM; on Caspase-7, 7 nM; at Caspase-9, 5 nM; at Caspase-8 it was 7 nM; against Caspase-6 it was 18 nM; against Prothrombin, more than 100000 nM. The IC50 in test [1] was more than 10000 nM; against Cathepsin B, more than 10000 nM; on Caspase-3, 30 nM; at Caspase-1, 20 nM.
For the molecule `COC(=O)CC(NC(=O)[C@@H](NC(=O)OCc1ccccc1)C(C)C)C(=O)CF` (stereo partly specified), the IC50 at Coagulation factor X was more than 100000 nM; against Prothrombin it was more than 100000 nM; at Cathepsin B, 300 nM; at Caspase-3, 1100 nM; in [2], 120 nM; against Caspase-1, 900 nM.
